The numbers were not newly measured in paper PMC6738130 (OncoTargets and therapy, 2019), which cites them from elsewhere.

For one data set, the system named is tumor. As to conditions: 5 nmol/kg SkQ1 per day in drinking water.
The conditions of data set [1]: driven by mitochondrial inner membrane potential (ΔΨ=140–180 mV).

With `CC1=C(C)C(=O)C(CCCCCCCCCC[P+](c2ccccc2)(c2ccccc2)c2ccccc2)=CC1=O.[Br-]` [SkQ1], the “Effect on level of ROS and tumor formation” value in the data set with tumor is recorded as “reduced the level of ROS prevented the formation of a tumor”.
Turning to `COC1=C(OC)C(=O)C(CCCCCCCCCC[P+](c2ccccc2)(c2ccccc2)c2ccccc2)=C(C)C1=O` [MitoQ, mitoquinone], the “Accumulation into the mitochondrial matrix” value in data set [1] is “several hundred-fold”.
